Measured values taken from patent US20230278972A1, “SUBSTITUTED HALOALKYL SULFONANILIDE HERBICIDES” (FMC Corporation, priority 2020, published 2023).

Assays:
Type in all cases: in vivo
[1] = system: Pigweed, Palmer (palmer amaranth, palmer pigweed, Amaranthus palmeri); experiment: Test A1 postemergence, Pigweed, Palmer; details: 0 to 100 scale (0 no effect, 100 complete control); for Pigweed, Palmer plant response rating: 31 g ai/ha, postemergence; for Plant response rating, Pigweed, Palmer: Postemergence, 125 g ai/ha, 10 days
Method in brief: (§1)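 Plants grown in pots of loam/sand mix; preemergence = soil-directed spray on seeded pots, postemergence = spray at 1–2 leaves, height 2–10 cm; test chemicals formulated in non-phytotoxic solvent with surfactant.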

[2] = system: ducksalad (Heteranthera limosa); experiment: Test B1 flooded paddy test, ducksalad; details: 250 g ai/ha, Flood, applied to paddy water, 2-leaf stage, visually evaluated after 10 to 14 days
Source text: A dash (-) response means no test result.

[3] = system: Oat, Wild (wild oat, Avena fatua); experiment: Test A1 preemergence, Oat, Wild
Method in brief: as §1

[4] = system: Foxtail, Giant (giant foxtail, Setaria faberi); experiment: Test A1 preemergence, Foxtail, Giant
Method in brief: as §1

[5] = system: Pigweed, Palmer (palmer amaranth, palmer pigweed, Amaranthus palmeri); experiment: Test A1 preemergence, Pigweed, Palmer
Method in brief: as §1

[6] = system: wheat (Triticum aestivum); experiment: Test A1 postemergence, wheat; details: 0 to 100 scale (0 no effect, 100 complete control); for Wheat plant response rating: 31 g ai/ha, postemergence; for Plant response rating, Wheat: Postemergence, 125 g ai/ha, 10 days
Method in brief: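 Herbicidal response was scored on plants treated either preemergence, by directed spray onto soil of a loam–sand blend after sowing, or postemergence on potted plants at the one- to two-leaf stage, 2–10 cm high. Test chemicals were carried in a non-phytotoxic solvent mix with surfactant.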

[7] = 31 g ai/ha, 0 to 100 scale (0 no effect, 100 complete control)
[8] = 125 g ai/ha, 0 to 100 scale, 0 no effect, 100 complete control
[9] = 125 g ai/ha, 0 to 100 scale (0 no effect, 100 complete control)

Cc1cc(C)c(N2CCC3(CCC(C)CC3)C2=O)cc1NS(=O)(=O)C(F)(F)F (stereo not shown) [Compound 402]
Pigweed, Palmer plant response rating [1]: 20 | Plant response rating, Pigweed, Palmer [1]: 70 | Plant response rating, Ducksalad (0 to 100 scale, 0 is no effect, 100 is complete control) [2]: 45 | Plant response rating, Oat, Wild [3, 7]: 50 | Plant response rating, Oat, Wild [3, 8]: 70 | Plant response rating, Foxtail, Giant [4, 7]: 90 | Plant response rating, Foxtail, Giant [4, 8]: 100 | Plant response rating, Pigweed, Palmer [5, 7]: 60 | Plant response rating, Pigweed, Palmer [5, 8]: 80 | Wheat plant response rating [6]: 0 | Plant response rating, Wheat [6]: 0

Cc1cc(C)c(N(COC(=O)C(C)(C)C)S(=O)(=O)C(F)(F)F)cc1N1CCC2(CCC(C(F)(F)F)CC2)C1=O (stereo not shown) [Compound 403]
Pigweed, Palmer plant response rating [1]: 0 | Plant response rating, Pigweed, Palmer [1]: 30 | Plant response rating, Ducksalad (0 to 100 scale, 0 is no effect, 100 is complete control) [2]: 15 | Plant response rating, Oat, Wild [3, 7]: 0 | Plant response rating, Oat, Wild [3, 8]: 10 | Plant response rating, Foxtail, Giant [4, 7]: 0 | Plant response rating, Foxtail, Giant [4, 8]: 10 | Plant response rating, Pigweed, Palmer [5, 7]: 0 | Plant response rating, Pigweed, Palmer [5, 8]: 0 | Wheat plant response rating [6]: 0 | Plant response rating, Wheat [6]: 0

Cc1cc(C)c(N2Cc3cccc(C)c3C2=O)cc1NS(=O)(=O)Cl [Compound 408]
Pigweed, Palmer plant response rating [1]: 30 | Plant response rating, Pigweed, Palmer [1]: 50 | Plant response rating, Ducksalad (0 to 100 scale, 0 is no effect, 100 is complete control) [2]: 75 | Plant response rating, Oat, Wild [3, 9]: 100 | Plant response rating, Foxtail, Giant [4, 7]: 100 | Plant response rating, Foxtail, Giant [4, 9]: 100 | Plant response rating, Pigweed, Palmer [5, 9]: 60 | Wheat plant response rating [6]: 60 | Plant response rating, Wheat [6]: 70

COc1cccc2c1C(=O)N(c1cc(N(COC(=O)C(C)(C)C)S(=O)(=O)Cl)c(C)cc1C)C2 [Compound 413]
Pigweed, Palmer plant response rating [1]: 20 | Plant response rating, Pigweed, Palmer [1]: 30 | Plant response rating, Ducksalad (0 to 100 scale, 0 is no effect, 100 is complete control) [2]: 80 | Plant response rating, Oat, Wild [3, 9]: 0 | Plant response rating, Foxtail, Giant [4, 7]: 0 | Plant response rating, Foxtail, Giant [4, 9]: 10 | Plant response rating, Pigweed, Palmer [5, 9]: 90 | Wheat plant response rating [6]: 0 | Plant response rating, Wheat [6]: 0

CCOc1cccc2c1C(=O)N(c1cc(N(COC(=O)C(C)(C)C)S(=O)(=O)Cl)c(C)cc1C)C2 [Compound 414]
Pigweed, Palmer plant response rating [1]: 0 | Plant response rating, Pigweed, Palmer [1]: 10 | Plant response rating, Ducksalad (0 to 100 scale, 0 is no effect, 100 is complete control) [2]: 40 | Plant response rating, Oat, Wild [3, 9]: 30 | Plant response rating, Foxtail, Giant [4, 7]: 0 | Plant response rating, Foxtail, Giant [4, 9]: 0 | Plant response rating, Pigweed, Palmer [5, 9]: 40 | Wheat plant response rating [6]: 0 | Plant response rating, Wheat [6]: 0

Cc1cc(C)c(N2Cc3cccc(Br)c3C2=O)cc1NS(=O)(=O)Cl [Compound 415]
Pigweed, Palmer plant response rating [1]: 0 | Plant response rating, Pigweed, Palmer [1]: 20 | Plant response rating, Ducksalad (0 to 100 scale, 0 is no effect, 100 is complete control) [2]: 65 | Plant response rating, Oat, Wild [3, 9]: 80 | Plant response rating, Foxtail, Giant [4, 7]: 80 | Plant response rating, Foxtail, Giant [4, 9]: 90 | Plant response rating, Pigweed, Palmer [5, 9]: 60 | Wheat plant response rating [6]: 20 | Plant response rating, Wheat [6]: 70
